Measured values taken from patent US6114393A, “Use of inhibitors of the sodium-hydrogen exchanger for the production of a pharmaceutical for the treatment of disorders which are caused by protozoa” (Hoechst Marion Roussel Deutschland GmbH, priority 1997, dated 2000).
Where a name gives a salt, the structure may show the parent alone. Read-outs that look alike come from different tables or passages of the source.

Assays:
[1] = tested on: Plasmodium falciparum HB3 (chloroquine-sensitive) strain; assay: growth inhibition of Plasmodium falciparum, [3H]-hypoxanthine incorporation, chloroquine-sensitive (HB3) strain; format: cell-based; conditions: 48 h erythrocyte cycle, ring stage, 1% parasitemia
Procedure: (§1) Erythrocytic stages of the human malaria parasite Plasmodium falciparum were cultured in RPMI 1640 medium, with L-glutamine, 25 mM HEPES, 4 μg/ml of gentamycin, 10% human serum and 5% human erythrocytes, according to Trager and Jensen (1976). The cultures were kept in Petri dishes (10 ml per dish with 10 cm diameter) and incubated at 37° C. in an atmosphere of 92% nitrogen, 3% carbon dioxide and 5% oxygen. The medium of the cultures was changed daily. At a parasitemia of at most 10%, the cultures were diluted. In order to synchronize the cultures, the infected erythrocytes were washed in 5% strength sorbitol solution according to Lambros and Vanderberg (1979). Only the ring stages survive this treatment.
(§2) The half-maximal inhibitory concentration of various NHE inhibitors for the growth of Plasmodium flaciparum was measured in 96-well microtiter plates by incorporation of radioactive hypoxanthine according to Desjardins et al. (1979). In this case, the parasites were cultured for a complete erythrocyte cycle lasting 48 hours in the presence of the corresponding NHE inhibitors.
(§3) The NHE inhibitors were dissolved in DMSO and prediluted in physiological saline solution (150 mM NaCl). The dilution series of the NHE inhibitors in 10-fold concentrated 20 μl aliquots was initially introduced onto the microtiter plates, 180 μl of parasite suspension in culture medium were then added to each one. The parasites were in the ring stage with a parasitemia of 1%. The microtiter plates were then incubated for 24 hours. In order to change the culture medium, 150 μl each of supernatant from each well were removed and replaced by 135 μl of new medium, additionally supplemented with 2 μCi/ml of [3H]-hypoxanthine. […] After incubation for a further 24 hours, the cultures were harvested by filtration on glass fiber filters and the incorporated radioactivity was measured. […]
(§4) The IC50 values of the various NHE inhibitors were measured on a chloroquine-sensitive (HB3) and a chloroquine-resistant (Dd2) strain.

[2] = tested on: Plasmodium falciparum Dd2 (chloroquine-resistant) strain; assay: growth inhibition of Plasmodium falciparum, [3H]-hypoxanthine incorporation, chloroquine-resistant (Dd2) strain; format: cell-based; conditions: read-out: Dd2 IC50
Procedure: as §1, §2, §3, §4

[3] = Dd2, chloroquine-resistant, 48 h erythrocyte cycle, ring stage, 1% parasitemia

SMILES | IC50 [1] [µM] | IC50 [2, 3] [µM] | IC50 ([2]; DD2, Erythrocyte, 48 h) [µM]
NC(N)=NC(=O)c1ccc(Oc2cccnc2)c(C(F)(F)F)c1 [3-trifluoromethyl-4-(3-pyridyloxy)benzoylguanidine dihydrochloride] | 12 ± 1.7 | 6.5 ± 1.5 | –
CN(C)c1cc(C(=O)N=C(N)N)cc(C(F)(F)F)c1 [3-trifluoromethyl-5-N,N-dimethylaminobenzoylguanidine dihydrochloride] | 9.97 | 1.3 ± 0.1 | –
CS(=O)(=O)c1cc(C(=O)N=C(N)N)ccc1Oc1ccc(CCN)cc1 [4-[4-(2-aminoethyl)phenoxy]-3-methylsulfonylbenzoylguanidine dihydrochloride] | 2.9 ± 0.79 | – | 3.5 ± 0.04
